Tests used:
CSNK1A1 = CSNK1A1 (Homo sapiens (Human), UniProt P48729); test: CSNK1A1 High ATP Assay (ADP-Glo, 1 mM ATP); assay type: biochemical; conditions: median, read-out: CSNK1A1 high ATP assay IC50 [mol/l] (median)
Procedure, shortened: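 Kinase activity taken as ADP generated, quantified by ADP-Glo luminescence after 1 h ATP depletion and 1 h detection at 22 °C. Enzyme is GST–full-length human CSNK1A1 (insect cell-expressed), pre-bound to compound for 15 min, with phosphopeptide substrate and 1 mM ATP.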

CSNK1D = CSNK1D (Homo sapiens (Human), UniProt P48730); test: CSNK1D Assay (ADP-Glo, 1 μM ATP); assay type: biochemical; conditions: median, read-out: CSNK1D IC50 [mol/l] (median)
Chain of CSNK1D (P48730 whole entry, the tested form may be a part): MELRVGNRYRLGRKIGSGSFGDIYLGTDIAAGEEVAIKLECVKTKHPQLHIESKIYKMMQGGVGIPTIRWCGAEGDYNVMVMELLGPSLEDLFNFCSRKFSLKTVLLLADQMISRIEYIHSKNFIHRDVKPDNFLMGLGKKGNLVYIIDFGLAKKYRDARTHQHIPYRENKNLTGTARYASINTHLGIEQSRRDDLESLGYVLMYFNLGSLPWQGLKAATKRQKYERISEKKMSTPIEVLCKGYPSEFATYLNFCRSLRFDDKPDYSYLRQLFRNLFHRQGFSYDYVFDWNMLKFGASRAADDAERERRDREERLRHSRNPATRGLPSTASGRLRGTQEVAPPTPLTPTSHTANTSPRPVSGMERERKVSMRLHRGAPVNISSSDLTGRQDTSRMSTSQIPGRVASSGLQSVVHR
Procedure, shortened: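 ADP-Glo luminescence reports ADP generated by GST-fused full-length human CSNK1D (insect-cell expressed, about 0.5 ng/μL) acting on a biotinylated peptide at 1 μM ATP. Test compounds were pre-bound to enzyme 15 min at 22° C in 50 mM HEPES pH 7.5.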

Chain of CSNK1A1 (P48729 whole entry): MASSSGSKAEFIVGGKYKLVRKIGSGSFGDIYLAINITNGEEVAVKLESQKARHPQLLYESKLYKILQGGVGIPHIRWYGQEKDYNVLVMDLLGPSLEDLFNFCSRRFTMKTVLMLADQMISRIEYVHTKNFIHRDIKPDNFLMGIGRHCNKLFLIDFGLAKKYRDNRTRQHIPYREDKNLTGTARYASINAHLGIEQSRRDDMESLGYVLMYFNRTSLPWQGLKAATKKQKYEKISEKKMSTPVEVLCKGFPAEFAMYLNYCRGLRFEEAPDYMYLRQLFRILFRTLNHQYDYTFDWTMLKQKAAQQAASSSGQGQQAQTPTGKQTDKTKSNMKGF

Q: What does the source list for `CC(C(=O)Nc1cc(-c2[nH]c3cc(Cl)cnc3c2-c2ccccn2)ccn1)c1ccc(F)cc1` (centres unmarked) [Example 52, N-{4-[6-chloro-3-(pyridin-2-yl)-1H-pyrrolo[3,2-b]pyridin-2-yl]pyridin-2-yl}-2-(4-fluorophenyl)propanamide]?
A: IC50 (CSNK1A1): 382 nM; IC50 (CSNK1D): 20.5 nM

From patent US20230339939A1 (Bayer Aktiengesellschaft, priority 2020, published 2023)
